This is an account of results in patent US5587392A, “Azolyl methyl phenyl derivatives having aromatase inhibitory activity” (Mochida Pharmaceutical Co., Ltd., priority 1994, dated 1996).

By IC50 is commonly meant the midpoint of a concentration-inhibition curve.

One data set relates to plasma estradiol. Briefly: Decreasing activity on blood estrogen (plasma estradiol, PMSG-treated rats). The format is in vivo, female SD rats. The settings on record: Rattus norvegicus, po, 4 hours after dosing, read-out: Ratio in plasma estradiol decrease; for inhibition in vivo at 0.01 mg/kg: 0.01 mg/kg orally; for inhibition in vivo at 0.1 mg/kg: 0.1 mg/kg orally. The method, then:
More specifically, pregnant mare serum gonadotropin (PMSG) was subcutaneously administered to female SD rats aged 3 weeks, at a dose of 200 IU/rat. […] Four hours after the dosing of the test compound, blood was sampled, and plasma estradiol was messuered by radioimmunoassay(RIA). The decreasing ratio (%) in plasma estradiol levels was calculated by comparing with control groups.

A further data set has as its target T1, aromatase from rat ovary (Rattus norvegicus, UniProt P22443).
T1 construct: Using as an enzyme sample the ovarian microsome fraction from a female rat; from tissue; host or cells: rat ovary, microsome fraction (female rat)
T1 sequence (P22443 1-508): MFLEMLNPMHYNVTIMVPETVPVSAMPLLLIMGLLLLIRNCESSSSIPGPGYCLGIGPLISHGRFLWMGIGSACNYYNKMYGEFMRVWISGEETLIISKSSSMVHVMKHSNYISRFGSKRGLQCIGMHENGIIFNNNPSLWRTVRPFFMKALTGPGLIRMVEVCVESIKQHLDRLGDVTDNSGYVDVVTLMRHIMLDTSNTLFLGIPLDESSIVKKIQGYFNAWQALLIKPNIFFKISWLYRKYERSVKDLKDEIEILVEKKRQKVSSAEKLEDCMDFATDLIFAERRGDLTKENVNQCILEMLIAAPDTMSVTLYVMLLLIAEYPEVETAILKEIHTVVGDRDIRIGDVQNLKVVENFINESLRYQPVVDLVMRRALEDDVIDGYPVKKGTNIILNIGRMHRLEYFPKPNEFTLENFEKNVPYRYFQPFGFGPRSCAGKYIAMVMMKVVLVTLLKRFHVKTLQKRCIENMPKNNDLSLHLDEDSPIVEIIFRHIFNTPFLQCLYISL
Kind of data set: Inhibitory activity on aromatase from rat ovary. The class given is biochemical.

In another data set the test system is aromatase. To be noted: related art; cited from earlier work.
The conditions of data set [1]: related art; cited from earlier work.
In another data set the test system is progesterone. Kind of data set: Effect on plasma levels of progesterone. The settings on record: even at the highest doses (10 mg/kg; CGS 16949A 1 mg/kg). The class given is in vivo, male SD rats.
The next data set deals with corticosterone. Briefly: Effect on plasma levels of corticosterone. The class given is in vivo, male SD rats. To be noted: even at the highest doses (10 mg/kg; CGS 16949A 1 mg/kg).
The test system of the next data set is testosterone. Briefly: Effect on plasma levels of testosterone. The class given is in vivo, male SD rats. The settings on record: even at the highest doses (10 mg/kg; CGS 16949A 1 mg/kg).
The subject of data set [2] is steroid hormone level in blood. Kind of data set: Effects on the synthesis of various steroid hormones, compared with the dose lowering blood estrogen. To be noted: 10 mg/kg. The format is in vivo, rats.
Data set [3] relates to estrogen-dependent diseases. To be noted: related art; cited from earlier work.
The mark [4] stands for this setting: rat ovarian microsomes, 30 nM [1β-3H] androstenedione, pH 7.4, 37° C., 15 minutes, read-out: IC50 value.

SMILES strings stand for the structures. Where two headings read alike, the source gives them in different places.

For the molecule `Cn1nnc2ccc(Oc3ccc([N+](=O)[O-])cc3Cn3cncn3)cc21` [Example 50, 1-methyl-6-[4-nitro-2-(1H-1,2,4-triazol-1-ylmethyl)phenoxy]-1H-benzotriazole], the inhibition in vivo at 0.01 mg/kg in the data set with plasma estradiol was 59%. Moreover, the IC50 on aromatase from rat ovary (setting [4]) was 0.5 nM.

`Cn1nnc2ccc(Cc3ccc(Cl)cc3Cn3cncn3)cc21` [Example 79, 6-[4-chloro-2-(1H-1,2,4-triazol-1-ylmethyl)benzyl]-1-methyl-1H-benzotriazole]: the 50% inhibitory concentration (IC50) at aromatase from rat ovary (setting [4]) turned out to be 0.7 nM.

Consider `Cn1nnc2ccc(Oc3ccc(F)cc3Cn3cncn3)cc21` [Example 45, 6-[4-Fluoro-2-(1H-1,2,4-triazol-1-ylmethyl)phenoxy]-1-methyl-1H-benzotriazole], for which the IC50 at aromatase from rat ovary (setting [4]) stood at 3.3 nM.

`Cn1nnc2ccc(Sc3ccc(Cl)cc3Cn3cncn3)cc21` [Example 71, 6-[4-chloro-2-(1H-1,2,4-triazol-1-ylmethyl)phenylthio]-1-methyl-1H-benzotriazole]: the IC50 on aromatase from rat ovary (setting [4]) amounted to 1.2 nM.

With `COc1ccc(Oc2ccc3nnn(C)c3c2)c(Cn2cncn2)c1` [Example 47, 6-[4-Methoxy-2-(1H-1,2,4-triazol-1-ylmethyl)phenoxy]-1-methyl-1H-benzotriazole], the IC50 on aromatase from rat ovary (setting [4]) was 1.6 nM.

`Clc1ccc(Oc2ccc3ccccc3c2)c(Cn2ccnc2)c1` [Example 6, 1-[5-Chloro-2-(2-naphthyloxy)benzyl]-1H-imidazole]: the IC50 on aromatase from rat ovary (setting [4]) came out at 9.9 nM.

In the case of `Cn1nnc2ccc(Oc3cc(Cl)ccc3Cn3cncn3)cc21` [Example 49, 6-[5-Chloro-2-(1H-1,2,4-triazol-1-ylmethyl)phenoxy]-1-methyl-1H-benzotriazole], the IC50 at aromatase from rat ovary (setting [4]) came to 1.5 nM.

Turning to `Cn1cnc2ccc(Oc3ccc(Cl)cc3Cn3cncn3)cc21` [Example 68, 6-[4-chloro-2-(1H-1,2,4-triazol-1-ylmethyl)phenoxy]-1-methylbenzimidazole], at aromatase from rat ovary (setting [4]), the IC50 was 2.6 nM.

For the molecule `CC(=O)N1CCN(c2ccc(OCC3COC(Cn4ccnc4)(c4ccc(Cl)cc4Cl)O3)cc2)CC1` (stereo not drawn) [ketoconazole], the aromatase inhibitory action result in the data set with aromatase is “have aromatase inhibitory activities as well”.

On to `C[C@]12CCC(=O)C(O)=C1CC[C@@H]1[C@@H]2CC[C@]2(C)C(=O)CC[C@@H]12` [4-hydroxyandrostenedione], for which the “absorption when administered orally” value in data set [1] is “poorly absorbed when administered orally”.

`Clc1ccccc1C(c1ccccc1)(c1ccccc1)n1ccnc1` [clotrimazole]: in the data set with aromatase, the aromatase inhibitory action entry is recorded as “have aromatase inhibitory activities as well”.

For the molecule `Cn1nnc2ccc(Oc3ccc(C=O)cc3Cn3cncn3)cc21` [Example 53, 4-[6-(1-methyl-1H-benzotriazoyloxy)]-3-(1H-1,2,4-triazol-1-ylmethyl)benzaldehyde], on aromatase from rat ovary (setting [4]), the IC50 was determined as 0.8 nM.

In the case of `Cn1nnc2ccc(Oc3ccc(Cl)cc3Cn3ccnc3)cc21` [Example 38, 6-[4-chloro-2-(1H-imidazol-1-ylmethyl)phenoxy]-1-methyl-1H-benzotriazole], in the data set on plasma estradiol, the inhibition in vivo at 0.1 mg/kg was 44%. Moreover, the IC50 on aromatase from rat ovary (setting [4]) was determined as 0.4 nM.

Regarding `Clc1ccc(Oc2ccc3[nH]nnc3c2)c(Cn2cncn2)c1` [Example 40, 5-[4-chloro-2-(1H-1,2,4-triazol-1-ylmethyl)phenoxy]-1H-benzotriazole], at aromatase from rat ovary (setting [4]), the concentration for half-maximal inhibition (IC50) is 0.6 nM.

As for `C#Cc1ccc(Oc2ccc3nnn(C)c3c2)c(Cn2cncn2)c1` [Example 58, 6-[4-ethynyl-2-(1H-1,2,4-triazol-1-ylmethyl)phenoxy]-1-methyl-1H-benzotriazole], the IC50 on aromatase from rat ovary (setting [4]) turned out to be 0.3 nM.

`CCOC(=O)c1ccc(Oc2ccc3nnn(C)c3c2)c(Cn2cncn2)c1` [Example 55, 4-[6-(1-methyl-1H-benzotriazoyloxy) ]-3-(1H-1,2,4-triazol-1-ylmethyl)benzoic acid ethyl ester]: the IC50 at aromatase from rat ovary (setting [4]) was found to be 1.4 nM.

Take `Clc1ccc(COC(Cn2ccnc2)c2ccc(Cl)cc2Cl)c(Cl)c1` (stereo not drawn) [miconazole]: the aromatase inhibitory action entry in the data set on aromatase is given as “have aromatase inhibitory activities as well”.

For the molecule `Cn1nnc2ccc(Oc3ccc(Br)cc3Cn3cncn3)cc21` [Example 43, 6-[4-bromo-2-(1H-1,2,4-triazol-1-ylmethyl)phenoxy]-1-methyl-1H-benzotriazole], in the data set on plasma estradiol, the inhibition in vivo at 0.01 mg/kg amounted to 41% and the inhibition in vivo at 0.1 mg/kg came to 69%. The IC50 on aromatase from rat ovary (setting [4]) was 0.3 nM.

As for `Cn1nnc2ccc(Oc3ccc(Cl)cc3Cn3cncn3)cc21` [Example 41, 6-[4-chloro-2-(1H-1,2,4-triazol-1-ylmethyl)phenoxy]-1-methyl-1H-benzotriazole], the “effect on plasma levels of progesterone” value in the data set with progesterone is “neither the compound of Example 41 nor the compound of Example 52 in accordance with the present invention had any effect”. Also, in the data set on plasma estradiol, the inhibition in vivo at 0.01 mg/kg was 46% and the inhibition in vivo at 0.1 mg/kg came to 70%. In addition, the IC50 on aromatase from rat ovary (setting [4]) is 0.5 nM. Moreover, the “effect on plasma levels of corticosterone” value with corticosterone is recorded as “neither the compound of Example 41 nor the compound of Example 52 in accordance with the present invention had any effect”. Besides, in the data set on testosterone, the “effect on plasma levels of testosterone” value is recorded as “neither the compound of Example 41 nor the compound of Example 52 in accordance with the present invention had any effect”. Moreover, the “effect on any steroid hormone level in blood” value in [2] is “Neither the compound of Example 41 nor the compound of Example 52 in accordance with the present invention had any effect”.

Turning to `CCn1nnc2ccc(Oc3ccc(Cl)cc3Cn3cncn3)cc21` [Example 67, 6-[4-chloro-2-(1H-1,2,4-triazol-1-ylmethyl)phenoxy]-1-ethyl-1H-benzotriazole], the concentration for half-maximal inhibition (IC50) on aromatase from rat ovary (setting [4]) is 0.6 nM.

For `Cn1nnc2ccc(Oc3ccc(OC(F)(F)F)cc3Cn3cncn3)cc21` [Example 48, 1-Methyl-6-[4-(trifluoromethoxy)-2-(1H-1,2,4-triazol-1-ylmethyl)phenoxy]-1H-benzotriazole], the inhibition in vivo at 0.01 mg/kg with plasma estradiol came to 30%. Half-maximal inhibition on aromatase from rat ovary (IC50) required 0.9 nM.

In the case of `Cn1nnc2ccc(Oc3ccc(I)cc3Cn3cncn3)cc21` [Example 46, 6-[4-Iodo-2-(1H-1,2,4-triazol-1-ylmethyl)phenoxy]-1-methyl-1H-benzotriazole], the inhibition in vivo at 0.01 mg/kg in the data set with plasma estradiol worked out at 36%. Moreover, the IC50 at aromatase from rat ovary (setting [4]) came to 0.4 nM.

For the molecule `CC(=O)c1ccc(Oc2ccc3nnn(C)c3c2)c(Cn2cncn2)c1` [Example 51, 4-[6-(1-methyl-1H-benzotriazoyloxy)]-3-(1H-1,2,4-triazol-1-ylmethyl)acetophenone], the IC50 on aromatase from rat ovary (setting [4]) turned out to be 1.2 nM.

As for `C=Cc1ccc(Oc2ccc3nnn(C)c3c2)c(Cn2cncn2)c1` [Example 56], the IC50 at aromatase from rat ovary (setting [4]) was determined as 0.3 nM.

Regarding `Clc1ccc(Oc2cccc3ccccc23)c(Cn2ccnc2)c1` [Example 5, 1-[5-chloro-2-(1-naphthyloxy)benzyl]-1H-imidazole], the IC50 at aromatase from rat ovary (setting [4]) was 6 nM.

Take `C[C@]12C=CC(=O)C=C1CC[C@@H]1[C@@H]2CC[C@]2(C)OC(=O)CC[C@@H]12` [testolactone]: the therapeutical efficacy result in data set [3] is “never exerts sufficient therapeutical efficacy”. In addition, the “absorption when administered orally” value in data set [1] was “poorly absorbed when administered orally”.

For the molecule `Cn1nnc2ccc(Cc3ccc(C#N)cc3Cn3cncn3)cc21` [Example 80, 4-[(1-methyl-1H-benzotriazole-6-yl)methyl]-3-(1H-1,2,4-triazol-1-ylmethyl)benzonitrile], the inhibition in vivo at 0.1 mg/kg in the data set on plasma estradiol worked out at 49%. Further, the IC50 on aromatase from rat ovary (setting [4]) was 1.9 nM.

Consider `Cn1nnc2ccc(Oc3ccccc3Cn3cncn3)cc21` [Example 44, 1-methyl-6-[2-(1H-1,2,4-triazol-1-ylmethyl)phenoxy]-1H-benzotriazole], for which the inhibition in vivo at 0.1 mg/kg in the data set with plasma estradiol was determined as 23%. Moreover, the IC50 on aromatase from rat ovary (setting [4]) was determined as 7.8 nM.

Turning to `CC/C(=C(\c1ccccc1)c1ccc(OCCN(C)C)cc1)c1ccccc1` [tamoxifen], in data set [3], the therapeutical efficacy entry is on record as “clinically satisfactory effect cannot be brought about from such administration alone”.

Take `Cn1nnc2ccc(Oc3ccc(C(F)(F)F)cc3Cn3cncn3)cc21` [Example 64, 6-[2-(1H-1,2,4-triazol-1-ylmethyl)-4-(trifluoromethyl)phenoxy]-1-methyl-1H-benzotriazole]: at aromatase from rat ovary (setting [4]), the IC50 is 0.6 nM.
